What all share (type): functional
Assay [1] relates to Mus musculus. Kind of assay: Antimalarial activity was evaluated against Plasmodium vinckei V52 after intraperitoneal administration at dose 25 mg/kg.
Assay [2] has as its system Mus musculus. Kind of assay: Antimalarial activity was evaluated against Plasmodium vinckei V52 after intraperitoneal administration at dose 50 mg/kg.
The test system of assay [3] is Plasmodium vinckei vinckei. Briefly: Antimalarial activity against Plasmodium vinckei V52 on 10 mg/kg intraperitoneal dose.
In assay [4] the test system is Mus musculus. Kind of assay: Increase in mean survival days was determined in mice after ip administration of 20 mg/kg. The note with it: route intraperitoneal.
Assay [5] concerns Mus musculus. Kind of assay: Increase in mean survival days was determined in mice after ip administration of 15 mg/kg. The note with it: route intraperitoneal.
Assay [6] relates to Mus musculus. Kind of assay: Increase in mean survival days was determined in mice after ip administration of 10 mg/kg. The note with it: route intraperitoneal.
In assay [7] the test system is Mus musculus. Kind of assay: Increase in mean survival days was determined in mice after ip administration of 25 mg/kg. The note with it: route intraperitoneal.
Assay [8] has as its system Mus musculus. Kind of assay: Increase in mean survival days was determined in mice after ip administration of 30 mg/kg. The note with it: route intraperitoneal.
Assay [9] deals with Mus musculus. Kind of assay: Increase in mean survival days was determined in mice after ip administration of 50 mg/kg. The note with it: route intraperitoneal.
Assay [10] relates to Plasmodium vinckei vinckei. Briefly: Antimalarial activity against Plasmodium vinckei V52 on 30 mg/kg intraperitoneal dose.
Assay [11] has as its system Mus musculus. Briefly: Antimalarial activity was evaluated against Plasmodium vinckei V52 after intraperitoneal administration at dose 15 mg/kg.
Assay [12] relates to Plasmodium vinckei vinckei. Kind of assay: Increase in mean survival days of Plasmodium inoculated mice (Mus musculus) after 70 mg/Kg intraperitoneal dose.
The test system of assay [13] is Plasmodium vinckei vinckei. Briefly: Antimalarial activity against Plasmodium vinckei V52 on 70 mg/kg intraperitoneal dose.
The test system of assay [14] is Plasmodium vinckei vinckei. Briefly: Antimalarial activity against Plasmodium vinckei V52 after 20 mg/kg intraperitoneal dose.
Assay [15] has as its system Mus musculus. Briefly: Antimalarial activity was evaluated against Plasmodium vinckei vinckei V52 after intraperitoneal administration at dose 50 mg/kg.
Assay [16] deals with Mus musculus. Briefly: Antimalarial activity was evaluated against Plasmodium vinckei V52 after intraperitoneal administration at dose 70 mg/kg.
For assay [17], the species on record is Mus musculus. Kind of assay: Effective dose required to obtain a parasitaemia of 40% 48 hours after treatment in mice.
The subject of assay [18] is Mus musculus. Briefly: Antimalarial activity was evaluated against Plasmodium vinckei vinckei V52 after intraperitoneal administration at dose 25 mg/kg.
Assay [19] has as its system Mus musculus. Briefly: Antimalarial activity was evaluated against Plasmodium vinckei vinckei V52 after intraperitoneal administration at dose 40 mg/kg.
The subject of assay [20] is Mus musculus. Kind of assay: Increase in mean survival days was determined in mice after ip administration of 25 mg/kg; toxic. The note with it: route intraperitoneal.
Assay [21] relates to Mus musculus. Kind of assay: Increase in mean survival days was determined in mice after ip administration of 30 mg/kg; toxic. The note with it: route intraperitoneal.
For assay [22], the system named is Mus musculus. Kind of assay: Antimalarial activity was evaluated against Plasmodium vinckei V52 after intraperitoneal administration at dose 60 mg/kg.
Assay [23] deals with Mus musculus. Briefly: Increase in mean survival days was determined in mice after ip administration of 40 mg/kg. The note with it: route intraperitoneal.
The subject of assay [24] is Mus musculus. Kind of assay: Antimalarial activity was evaluated against Plasmodium vinckei V52 after intraperitoneal administration at dose 40 mg/kg.
For assay [25], the system named is Mus musculus. Briefly: Increase in mean survival days was determined in mice after ip administration of 70 mg/kg; toxic. The note with it: route intraperitoneal.
Assay [26] relates to Mus musculus. Kind of assay: Antimalarial activity was evaluated against Plasmodium vinckei V52 after intraperitoneal administration at dose 10 mg/kg.
Assay [27] has as its system Mus musculus. Kind of assay: Antimalarial activity was evaluated against Plasmodium vinckei V52 after intraperitoneal administration at dose 30 mg/kg.
Assay [28] relates to Mus musculus. Kind of assay: Increase in mean survival days was determined in mice after ip administration of 60 mg/kg. The note with it: route intraperitoneal.

Structures are written as SMILES.

The record followed here is ChEMBL document CHEMBL1125711, “Flavins as potential antimalarials. 2. 3-Methyl-10-(substituted-phenyl) flavins” (J Med Chem, 1991).

For the compound `Cc1cccc(-n2c3nc(=O)n(C)c(=O)c-3nc3ccccc32)c1`, the Cured (with Mus musculus [1]; in the assay on Mus musculus [2]; in assay [3]; in assay [10]; with Mus musculus [11]; in assay [13]) was 0% each time. Also, the Cured in assay [14] was 0%. For the same compound, the Mean survival days was 0.5 days in the assay on Mus musculus [4]; 0 days in the assay with Mus musculus [5]; 0.8 days in the assay on Mus musculus [6]; 0 days with Mus musculus [7]; 0 days with Mus musculus [8]; 0.5 days in the assay with Mus musculus [9]. Also, the Mean survival days in assay [12] was determined as 0.3 days.
Regarding `Cn1c(=O)nc2n(-c3ccc(Cl)c(Cl)c3)c3ccccc3nc-2c1=O`, the Cured (in [3]; with Mus musculus [15]; in the assay on Mus musculus [16]; in assay [14]) was 0% each time. Also, the Mean survival days (in the assay on Mus musculus [6]; in the assay with Mus musculus [8]; in the assay with Mus musculus [9]; in [12]) was 0 days throughout.
`Cn1c(=O)nc2n(-c3cc(Cl)cc(Cl)c3)c3ccccc3nc-2c1=O`: the Cured in assay [3] was 100%; in the assay on Mus musculus [16] it was 60%; with Mus musculus [18], 100%; in [10], 100%; with Mus musculus [11] it was 100%; in the assay with Mus musculus [19] it was 100%. This compound also displayed a Cured in [14] of 100%. In the assay filed under Mus musculus [17], this compound registered an ED40 of 40.2 µmol/kg. The compound further registered a Mean survival days in assay [12] of 16.5 days.
In the case of `Cn1c(=O)nc2n(-c3ccc(Cl)cc3Cl)c3ccccc3nc-2c1=O`, the Cured (in [3]; in the assay with Mus musculus [18]; in assay [10]; in the assay on Mus musculus [11]) was 0% throughout. Further, the Mean survival days with Mus musculus [5] was 0.5 days; with Mus musculus [6], 1.7 days; in the assay on Mus musculus [20], -1.2 days; with Mus musculus [21] it was -1 days.
Turning to `Cn1c(=O)nc2n(-c3ccc(C(F)(F)F)cc3)c3ccccc3nc-2c1=O`, the Cured with Mus musculus [2] came out at 100%; in assay [3] it was 0%; in the assay on Mus musculus [22], 100%; in assay [10] it was 80%; in [13], 100%; in [14], 0%. The values for the Mean survival days in the assay with Mus musculus [4], in the assay on Mus musculus [6] and in the assay on Mus musculus [8] were 0 days, 0 days and 2 days, respectively. The compound also returned an ED40 in the assay listed under Mus musculus [17] of 135 µmol/kg.
For the compound `Cn1c(=O)nc2n(-c3ccc(Cl)cc3F)c3ccccc3nc-2c1=O`, the Cured in assay [3], in [10] and in assay [14] was 0% in each case. For the same compound, the Mean survival days was 4 days in the assay with Mus musculus [4], 1 days in the assay on Mus musculus [6] and -2 days in the assay with Mus musculus [21].
For the compound `Cc1cc(-n2c3nc(=O)n(C)c(=O)c-3nc3ccccc32)ccc1Cl`, the Cured stood at 25% with Mus musculus [2]; 0% in assay [3]; 100% in the assay on Mus musculus [22]; 0% with Mus musculus [24]; 80% in assay [13]; 0% in assay [14]. Further, the Mean survival days with Mus musculus [23] turned out to be 0.3 days; in the assay on Mus musculus [6], 0 days; with Mus musculus [8] it was 0 days; in the assay with Mus musculus [9], 0.3 days; in assay [12], 2 days. Moreover, the ED40 in the assay listed under Mus musculus [17] came out at 182 µmol/kg.
Regarding `CCc1cccc(-n2c3nc(=O)n(C)c(=O)c-3nc3ccccc32)c1`, the Cured (in assay [3]; with Mus musculus [16]; in the assay with Mus musculus [18]; in assay [10]; in [14]) was 0% throughout. Besides, the Mean survival days in the assay on Mus musculus [4] stood at 0 days; in the assay with Mus musculus [5], 0 days; with Mus musculus [7] it was 0 days; in the assay on Mus musculus [8], 0 days; in [12], 0.3 days.
`Cn1c(=O)nc2n(-c3ccc(F)c(F)c3)c3ccccc3nc-2c1=O`: the Mean survival days in the assay with Mus musculus [25] is -1 days; in the assay with Mus musculus [4], -0.5 days; in the assay with Mus musculus [6], 0 days; in the assay with Mus musculus [8], 0 days. Further, the Cured in assay [3], in assay [10], in [13] and in assay [14] was 0% in each case.
`Cn1c(=O)nc2n(-c3ccc(C#N)cc3)c3ccccc3nc-2c1=O`: the Mean survival days (in the assay with Mus musculus [6]; in the assay on Mus musculus [8]; in assay [12]) was 0 days throughout. Also, the Cured with Mus musculus [16], in the assay on Mus musculus [26] and with Mus musculus [27] was 0% in each case.
Consider `CCCCc1ccc(-n2c3nc(=O)n(C)c(=O)c-3nc3ccccc32)cc1`, for which the Cured (in assay [3]; in the assay on Mus musculus [15]; in the assay on Mus musculus [16]; with Mus musculus [18]; in assay [10]; with Mus musculus [11]) was 0% each time. The compound further displayed a Cured in assay [14] of 0%. Moreover, the Mean survival days turned out to be 0 days in the assay on Mus musculus [4]; 0 days with Mus musculus [5]; 0 days with Mus musculus [6]; 0.1 days with Mus musculus [7]; 0 days with Mus musculus [8]; 0 days in the assay on Mus musculus [9]. In assay [12], this compound displayed a Mean survival days of 0.5 days.
For the compound `Cn1c(=O)nc2n(-c3ccccc3Cl)c3ccccc3nc-2c1=O`, the values for the Mean survival days in the assay on Mus musculus [25], with Mus musculus [6] and in the assay with Mus musculus [21] were -2 days, 0 days and -0.3 days, respectively. The Cured in assay [3], in assay [10] and in assay [13] was 0% each time.
As for `Cc1cc(Cl)ccc1-n1c2nc(=O)n(C)c(=O)c-2nc2ccccc21`, the Cured (in [3]; in the assay on Mus musculus [18]; in assay [10]; in assay [14]) was 0% throughout. In addition, the Mean survival days in the assay with Mus musculus [4] is 1.2 days; with Mus musculus [6], 0 days; with Mus musculus [20] it was -1.5 days; in the assay with Mus musculus [21], -2 days.
Consider `Cn1c(=O)nc2n(-c3cccc(Cl)c3)c3ccccc3nc-2c1=O`, for which the Cured is reported as 0% in the assay with Mus musculus [2]; 0% in [3]; 50% in the assay on Mus musculus [22]; 0% in assay [10]; 100% in assay [13]. Besides, the Mean survival days with Mus musculus [28] is 0.5 days; in the assay with Mus musculus [6], 0 days; with Mus musculus [8], 0 days; in the assay on Mus musculus [9] it was 0.4 days.
Take `Cn1c(=O)nc2n(-c3cc(C(F)(F)F)ccc3Cl)c3ccccc3nc-2c1=O`: the Cured (in the assay on Mus musculus [1]; in assay [3]; in assay [10]; in the assay with Mus musculus [11]; in assay [14]) was 0% throughout. The Mean survival days with Mus musculus [4] is 0 days; in the assay with Mus musculus [5], 0.2 days; in the assay on Mus musculus [6] it was 0 days; in the assay on Mus musculus [20], 0 days; in the assay with Mus musculus [21], -0.4 days.
Regarding `Cn1c(=O)nc2n(-c3cccc(F)c3)c3ccccc3nc-2c1=O`, the Mean survival days in the assay with Mus musculus [25] is -1 days; with Mus musculus [4] it was 0 days; with Mus musculus [23], 0.8 days; with Mus musculus [5], 0.2 days; in the assay on Mus musculus [6] it was 0.2 days; with Mus musculus [7], 0 days. Moreover, the Mean survival days came to 0.2 days in the assay on Mus musculus [8] and 0 days with Mus musculus [9]. For the same compound, the Cured in the assay on Mus musculus [1] amounted to 0%; in the assay with Mus musculus [2], 20%; in assay [3] it was 0%; in [10] it was 0%; in the assay with Mus musculus [11] it was 0%; in assay [13], 0%. In addition, the Cured (in the assay with Mus musculus [19]; in assay [14]) was 0% throughout.
With `Cc1ccc(-n2c3nc(=O)n(C)c(=O)c-3nc3ccccc32)cc1`, the Cured (with Mus musculus [2]; in assay [3]; with Mus musculus [16]; in assay [10]) was 0% in each case. The Mean survival days in the assay with Mus musculus [6] turned out to be 0 days; in the assay with Mus musculus [8], 0.2 days; in the assay on Mus musculus [9], 0.3 days; in assay [12], 0 days.
